Laboratory results published in patent US20220119447A1, “PEPTIDE AND FOR TREATING INFLAMMATORY DISEASE AND PAIN USING THE SAME” (PELL BIO-MED TECHNOLOGY CO., LTD., priority 2019, published 2022).
Non-standard residues stand in square brackets, D forms with d. Residues, ends and D or L forms follow the SMILES beside them. pGlu = O=C1CC[C@@H](C(=O)O)N1

What was measured:
[1] = test system: CFA-induced arthritis ICR mice; assay: Paw withdraw threshold (von Frey Filament) over time after single oral administration in CFA-induced arthritis mice; details: for time after administration of best antinociceptive effect: oral, peptide 3 mg/kg, morphine 10 mg/kg, PWT at 0, 30, 60, 90, 120 min, effect started to decrease at 120 min
[2] = test system: TNF-α; assay: Serum TNF-α by ELISA in CFA-induced arthritis mice after weekly oral administration; type: in vivo; details: 3 mg/kg oral once a week, 4th to 12th week; serum on 12th week; FIG. 1
Procedure: (§1) On the other hand, the mice administered with water were served as the control group, which also comprised 6 mice. The mice in the experimental group and the control group were sacrificed on the 12th week after administration. The serum collection is conducted by cardiac puncture. The Mouse TNF-α Quantikine ELISA Kit (R&D System, MTA00B), Mouse IL-6 Quantikine ELISA Kit (R&D System, M600B) and enzyme-linked immunosorbent assay (ELISA) were used to determine and collect the serum concentration of TNF-α and IL-6 of mice in the experimental group and the control group.

[3] = test system: IL-6; assay: Serum IL-6 by ELISA in CFA-induced arthritis mice after weekly oral administration; type: in vivo; details: 3 mg/kg oral once a week, 4th to 12th week; serum on 12th week; vs control group; FIG. 2
Procedure: as §1

[4] = test system: CFA-induced arthritis ICR mice; assay: Paw withdraw threshold (von Frey Filament) on weekly oral administration, 4th to 12th week, in CFA-induced arthritis mice; type: in vivo; details: 1 mg/kg oral once a week, 90 min after administration, increased from 0.4 g at 3rd week, FIG. 6
Text: Two dosage groups both contained 6 mice. […] The control group also contained 6 mice.

[5] = test system: CFA-induced arthritis ICR mice; assay: Paw withdraw threshold (von Frey Filament) after low oral doses (μg/kg) in CFA-induced arthritis mice; type: in vivo; details: 90 min after administration; for PWT value of ipsilateral hind paw: rose from 0.065 g, FIG. 7; for PWT value of contralateral paw: rose from 0.32 g, FIG. 8
Text: Every dosage group contained 6 mice.

[6] = test system: C57BL/6JNarl male mice; assay: Acid-induced abdominal constriction (writhing) assay; type: in vivo; details: oral doses of 1 μg/kg and 10 mg/kg, among 0.1 μg/kg to 10 mg/kg tested; 10 min before 1% acetic acid; FIG. 9
Procedure: (§2) For conducting nociceptive pain and acid-induced chronic widespread pain experiments, C57BL/6JNarl male mice (20 to 25 g) were housed in an environment with temperature control (24±0.5° C.) and 12-hour light-dark cycle (lights on during 08:00-20:00) and allowed free access to standard laboratory food and tap water. Animals were allowed to acclimatize for 20 to 30 min prior to experimental manipulations. Animal care and handling procedures were adopted in accordance with the International Association for the Study of Pain guidelines for those animals used in pain research, and the procedures were approved by the Committee for Ethics in Animal Research.
Acid-induced abdominal constriction assay was performed in accordance with H. O. Collier, L. C. Dinneen, C. A. Johnson, C. Schneider, The abdominal constriction response and its suppression by analgesic drugs in the mouse. Br J Pharmacol Chemother 32, 295-310 (1968). In general, the mice from Preparation Example 3 were placed in a small observation chamber and habituated for 20 min. […] The numbers of abdominal constrictions in 30 min after acid injection were counted and the mean constriction numbers of mice of each group were calculated. […]

[7] = test system: C57BL/6JNarl male mice; assay: Radiant heat tail-flick test; type: in vivo; details: oral doses of 0.1 μg/kg, 0.3 μg/kg, 0.1 mg/kg, 1 mg/kg, 3 mg/kg and 10 mg/kg, among 0.01 μg/kg to 10 mg/kg tested; mean latency 10-90 min; FIG. 9
Procedure: as §2
The radiant heat tail-flick test was modified in accordance with F. E. D'Amour, D. L. Smith, A method for determining loss of pain sensation. The Journal of Pharmacology and Experimental Therapeutics 72, 74-79 (1941). The 5 to 12 mice from Preparation Example 3 were placed and acclimatized in the restrainers for 30 min prior to the tail-flick test. […] The latency was recorded every 10 min during the indicated time period (10-90 min) after oral administration with different dosages of the peptide of SEQ ID NO: 1 (0.01 μg/kg, 0.03 μg/kg, 0.1 μg/kg, 0.3 μg/kg, 1 μg/kg, 0.01 mg/kg, 0.1 mg/kg, 1 mg/kg, 3 mg/kg, and 10 mg/kg). Then the mean latency during 10-90 min was calculated. […]

Row | SMILES | time after administration of best antinociceptive effect [1] [min] | serum concentration of TNF-α [2] | serum concentration of IL-6 [3] | PWT value of contralateral paw [4] | PWT value of ipsilateral hind paw ([5]; 0.3 μg/kg oral) [g] | PWT value of contralateral paw ([5]; 0.3 μg/kg oral) [g] | PWT value of ipsilateral hind paw ([5]; 1 μg/kg oral) [g] | PWT value of contralateral paw ([5]; 1 μg/kg oral) [g] | PWT value of ipsilateral hind paw ([5]; 3 μg/kg oral) [g] | PWT value of contralateral paw ([5]; 3 μg/kg oral) [g] | antinociceptive effect in the acid-induced writhing experiment [6] | antinociceptive effect in the radiant heat tail-flick test [7] | antinociceptive effect compared with morphine ([1]; peptide 3 mg/kg oral vs morphine 10 mg/kg oral, a lower amount was required) | PWT value of ipsilateral hind paw ([1]; peptide 3 mg/kg oral, at 90 min, rose from 0.07 g, FIG. 3) [g] | PWT value of contralateral paw ([1]; peptide 3 mg/kg oral, at 90 min, rose from 0.5±0.047 g, FIG. 4) [g]
1 | CN1CC[C@]23c4c5ccc(O)c4O[C@H]2[C@@H](O)C=C[C@H]3[C@H]1C5 [morphine, reference compound] | 90 |  |  |  |  |  |  |  |  |  |  |  |  |  | 
2 | CC(C)[C@H](NC(=O)[C@H](C)NC(=O)[C@@H](NC(=O)[C@H](CCC(=O)O)NC(=O)[C@@H]1CCC(=O)N1)[C@@H](C)O)C(=O)N[C@@H](CO)C(=O)N[C@@H](CO)C(=O)N[C@@H](Cc1c[nH]cn1)C(=O)N[C@@H](CCC(=O)O)C(=O)N[C@@H](CCC(N)=O)C(=O)N[C@@H](CC(=O)O)C(=O)O [peptide of SEQ ID NO: 1, Glp Glu Thr Ala Val Ser Ser His Glu Gln Asp] ([pGlu]ETAVSSHEQD-OH) | 90 | not detected | decreased compared to the control group | 0.6˜1.2 g | 1 | 1 | 0.6 | 1.4 | 0.16 | 1 | best antinociceptive effect | best antinociceptive effect | antinociceptive effect similar to morphine | 0.9 ± 0.156 | 1.35 ± 0.193
